According to publication PMC12308784, “Organometallic Half-Sandwich Complexes of 1,10-Phenanthroline Derivatives with Improved Solubility, Albumin-Binding, and Nanoformulation Potential Targeting Drug Resistance in Cancer” (Inorganic Chemistry, 2025):
Like-named read-outs stand apart in the source and are kept apart here.

Key:
[1] = tested on: MDA-MB-231, MCF-7 and T-47D breast cancer cell lines; test: PrestoBlue cytotoxicity, range over the three breast cancer lines; format: cell-based; details: MDA-MB-231, MCF-7, T-47D; 72 h
Procedure: The PHEN-derived ligands (DCP, BP) (together with PHEN for comparison) and the isolated complexes ([RuCym(DCP)-Cl]-Cl, [RhCp*(DCP)-Cl]-Cl, [RuCym(BP)-Cl]-Cl, [RhCp*(BP)-Cl]-Cl) were tested against the estrogen receptor (ER) negative MDA-MB-231, and the ER positive MCF-7 and T-47D breast cancer cell lines (Table , and Figure a for easier comparison).
(§1) MDA-MB-231 breast adenocarcinoma and MCF-7 and T-47D invasive breast carcinomas were purchased from the Developmental Therapeutic Program of the National Cancer Institute (NIH, USA), and they were cultured in RPMI medium (Thermo Fisher). MES–SA and MES–SA/Dx5 uterine sarcoma cell lines were purchased from American Type Culture Collection and were kept in DMEM (Thermo Fisher). MES–SA/B1 was created by the transfection of the human MDR1 gene in MES–SA, and MES–SA mCherry, MES–SA/B1 mOrange, and MES–SA/Dx5 eGFP were engineered to stably express the respective fluorescent proteins, as described previously. Culture media were supplemented with 10% fetal bovine serum, 2 mM L-glutamine, 100 units/mL penicillin, and 100 μg/mL streptomycin (Thermo Fisher). Cells were kept at 37 °C under 5% CO2 and were negative for mycoplasma infection.
(§2) Cytotoxicity of the nonfluorescent cancer cells (MDA-MB-231, MCF-7, T-47D) were assessed with PrestoBlue cell viability reagent (Thermo Fisher). Briefly, 2500 cells/well were seeded on 384-well plates, and then the next day drugs were added. After 72 h incubation, PrestoBlue was added in a 10% final concentration, and after an hour of additional incubation, plates were measured with a PerkinElmer EnSpire plate reader at 555 nm/585 nm excitation/emission wavelengths. Fluorescent cells (MES-SA mCherry, MES-SA/B1 mOrange, MES-SA/Dx5 eGFP) were admixed before seeding on 384-well plates at 800 cells/well density each, thus altogether 2400 cells/well. Drugs were added the following day, and the intensity of the fluorescent proteins were measured after 144 h incubation at the respective fluorescent channels (excitation/emission: eGFP: 485 nm/510 nm; mCherry: 585 nm/610 nm; mOrange: 545 nm/567 nm). pIC50 values were calculated by a custom program written by Judit Sessler in C#. IC50 values and standard deviation were calculated from average pIC50 values from at least 3 independent measurements.

[2] = tested on: T47D; test: PrestoBlue cytotoxicity assay; format: cell-based; details: for pIC50 (mean): Table S5
Procedure: as §1
as §2, with “measurements. Since the IC50 values were obtained through nonlinear regression fitting of the viability vs. log(concentration) data, the resulting confidence intervals are inherently asymmetric (see pIC50 values and their corresponding SD in Tables S5 and S6).” for “measurements.”

[3] = tested on: MDA-MB-231; test: PrestoBlue cytotoxicity assay; format: cell-based; details: for pIC50 (mean): Table S5
Procedure: as §1
as §2, with “measurements. Since the IC50 values were obtained through nonlinear regression fitting of the viability vs. log(concentration) data, the resulting confidence intervals are inherently asymmetric (see pIC50 values and their corresponding SD in Tables S5 and S6).” for “measurements.”

[4] = tested on: MCF-7; test: PrestoBlue cytotoxicity assay; format: cell-based; details: for pIC50 (mean): Table S5
Procedure: as §1
as §2, with “measurements. Since the IC50 values were obtained through nonlinear regression fitting of the viability vs. log(concentration) data, the resulting confidence intervals are inherently asymmetric (see pIC50 values and their corresponding SD in Tables S5 and S6).” for “measurements.”

[5] = n-octanol/water distribution coefficient, shake-flask; format: physicochemical; details: n-octanol/20 mM phosphate buffer, pH = 7.4, t = 25 °C; for logD at 4 h: n-octanol/buffered aqueous solution
Excerpt: The bioactive compounds must cross the cell membrane, which is influenced by their lipophilicity. Therefore, we characterized the lipophilicity of the complexes using n-octanol–water partitioning at three different chloride ion concentrations at pH 7.4. As the H2O/Cl^– exchange alters the charge of the complexes, it consequently affects their lipophilicity. The ratio of chlorido and aqua complexes depends on the actual Cl^– concentration and the chloride affinity of the complex. Chloride ion concentrations were chosen to mimic physiological conditions, specifically those found in blood (100 mM), cytosol (24 mM), and the nucleus (4 mM).
The traditional shake-flask method was used to obtain distribution coefficients of the ligands as well as of the complexes in n-octanol/buffered aqueous solution (20 mM phosphate, pH = 7.4) at different chloride ion concentrations (4, 24, and 100 mM) using UV–vis spectrophotometry (Agilent Cary 8454 diode array spectrophotometer) for the analysis. The compounds were dissolved in buffered aqueous solutions previously saturated with n-octanol. Then the aqueous and n-octanol phases were gently mixed in different volume ratios (using 1:60 for the ligands, 1:10 for the RhCp* and the RuCym complexes ratios of n-octanol to buffered aqueous solution volume) for 4 h, followed by phase separation. Then the UV–vis spectrum of the original aqueous sample and the aqueous and n-octanol phases was recorded and distribution coefficients (D) were calculated according to the formula described in our former work in detail.

[6] = 72 h, 384-well plate, read-out: IC50
[7] = Homo sapiens, 72 h, 384-well plate, read-out: IC50
[8] = Homo sapiens, Table S5, read-out: pIC50 (mean) (converted)
[9] = Homo sapiens, MCF7, 72 h, 384-well plate, read-out: IC50
[10] = Homo sapiens, MCF7, Table S5, read-out: pIC50 (mean) (converted)

Molecule | IC50 [1] [µM] | IC50 [2, 6] [µM] | pIC50 (mean) [2] | IC50 [3, 6] [µM] | pIC50 (mean) [3] | IC50 [4, 6] [µM] | pIC50 (mean) [4] | logD ([5]; c(Cl–) = 4 mM) | logD ([5]; c(Cl–) = 24 mM) | logD ([5]; c(Cl–) = 100 mM) | IC50 [2, 7] [µM] | IC50 [2, 8] [µM] | IC50 [3, 7] [µM] | IC50 [3, 8] [µM] | IC50 [4, 9] [µM] | IC50 [4, 10] [µM] | logD at 4 h ([5]; c(Cl–) = 100 mM)
Cc1ccc(C(C)C)cc1.[Cl-].[Cl-].[Ru+2].c1ccc(-c2ccnc3c2ccc2c(-c4ccccc4)ccnc23)cc1 [RuCymBP, [Ru(II)(η^6-p-cymene)(bathophenanthroline)Cl]Cl] | 1.2 to 1.9 | 1.86 | 5.73 | 1.23 | 5.91 | 1.93 | 5.71 | +1.46 ± 0.02 | +1.97 ± 0.02 | +2.48 ± 0.02 | – | – | – | – | – | – | –
Clc1ccnc2c1ccc1c(Cl)ccnc12 [DCP, 4,7-dichloro-1,10-phenanthroline] | 3.8 to 5.1 | – | – | – | – | – | – | – | – | – | 4.29 | 4.27 | 5.09 | 5.13 | 3.84 | 3.8 | 2.4
c1ccc(-c2ccnc3c2ccc2c(-c4ccccc4)ccnc23)cc1 [BP, 4,7-diphenyl-1,10-phenanthroline] | 0.59 to 0.76 | – | – | – | – | – | – | – | – | – | 0.63 | 0.631 | 0.76 | 0.759 | 0.59 | 0.589 | 3.69
[Rh(III)(η^5-C5Me5)(bathophenanthroline)Cl]Cl [RhCp*BP] | 4.7 to 14.9 | 5.28 | 5.28 | 4.68 | 5.33 | 14.9 | 4.83 | +0.82 ± 0.01 | +1.35 ± 0.03 | – | – | – | – | – | – | – | –
Cc1c(C)c(C)[c-](C)c1C.Clc1ccnc2c1ccc1c(Cl)ccnc12.[Cl-].[Cl-].[Rh+3] [RhCp*DCP, [Rh(III)(η^5-C5Me5)(4,7-dichloro-1,10-phenanthroline)Cl]Cl] | 5.9 to 7.6 | 7.36 | 5.13 | 7.56 | 5.12 | 5.92 | 5.23 | –1.03 ± 0.03 | –0.59 ± 0.02 | –0.38 ± 0.02 | – | – | – | – | – | – | –
Cc1ccc(C(C)C)cc1.Clc1ccnc2c1ccc1c(Cl)ccnc12.[Cl-].[Cl-].[Ru+2] [RuCymDCP, [Ru(II)(η^6-p-cymene)(4,7-dichloro-1,10-phenanthroline)Cl]Cl] | > 75 | 75 | 4.13 | > 100 | – | 76.4 | 4.12 | –0.55 ± 0.04 | +0.04 ± 0.12 | +0.35 ± 0.12 | – | – | – | – | – | – | –
